Series [1] concerns ANGPTL3 protein. The experiment in a line: Example 5: serum ANGPTL3 protein by ELISA in cynomolgus monkeys. The note with it: for Avg ANGPTL3 protein normalized to pre-treatment, individual animal / Avg ANGPTL3 protein normalized to pre-treatment, by group: 3.0 mg/kg single SC injection on day 1, serum; for Avg ANGPTL3 protein normalized to pre-treatment, by group: group average n=2; for reduction in ANGPTL3 protein compared to pre-treatment: all measured time points. It counts as in vivo, cynomolgus macaque (Macaca fascicularis). As to the method:
ANGPTL3 RNAi agents were evaluated in cynomolgus monkeys. On day 1, cynomolgus macaque (Macaca fascicularis) primates (also referred to herein as “cynos”) were administered a single subcutaneous injection of 0.3 mL/kg (approximately 2-3 mL volume, depending on animal mass) containing 3.0 mg/kg of ANGPTL3 RNAi agent AD05308 or AD05418, formulated in saline.
Two (2) cynos in each group were tested (n=2). Blood samples were drawn and serum samples were analyzed on days −37 (pre-dose), −15 (pre-dose), and −1 (pre-dose), 8, 16, 23, 30, and 37. Cynos were fasted overnight prior to each collection. ANGPTL3 protein levels in serum were measured by ELISA assay (R&D Systems), according to the manufacturer's recommendations. The ANGPTL3 protein levels were normalized. For normalization, the level of ANGPTL3 protein for each animal at a time point, was divided by the average pre-treatment level of expression in that animal (in this case at days −37, −15, and −1) to determine the ratio of expression “normalized to pre-treatment.”
(An ELISA detects its analyte on a solid surface through an enzyme-linked reagent.)

Series [2] concerns ANGPTL3 gene. The experiment in a line: Example 2: serum triglycerides in mice. The format is in vivo. As to the method:
(§1) To assess the in vivo activity of ANGPTL3 RNAi agents that are designed to target different positions on the ANGPTL3 gene, six- to eight-week-old female C57bl/6 mice were used. Pre-dose serum samples were taken at day −1 after a four hour fast. At day 1, each mouse was given a single subcutaneous administration of 200 μl containing either 3 mg/kg (mpk) of an ANGPTL3 RNAi agent in D5W (dextrose in 5% water), or control (D5W) with no RNAi agent, according to the dosing groups recited in Table 7.
(§2) Each of the RNAi agents included a modified sequence and an N-acetyl-galactosamine-containing targeting ligand conjugated to the 5′ terminal end of the sense strand. (See Tables 3, 4, and 5 for modified sequences and targeting ligand structures). The injections were performed between the skin and muscle (i.e. subcutaneous injections) into the loose skin over the neck and shoulder area. Three (3) mice in each group were tested (n=3). Serum was collected on days 8, […], 22, 29, and day 36 (for Groups 1 and 5-11 only). Mice were fasted for four hours prior to each collection. ANGPTL3 protein levels in serum were measured by ELISA assay (R&D Systems), according to the manufacturer's recommendations. Triglycerides, high-density lipoprotein (HDL), and total cholesterol in serum were measured on a Cobas® Integra 400 (Roche Diagnostics), according to the manufacturer's recommendations.
(§3) The ANGPTL3 protein levels, triglyceride levels, HDL levels, and total cholesterol levels for each animal were normalized. For normalization, the level of ANGPTL3 protein, triglyceride, HDL, and total cholesterol, respectively, for each animal at a time point, was divided by the pre-treatment level of expression in that animal (in this case at day −1) to determine the ratio of expression “normalized to pre-treatment.” Expression at a specific time point was then normalized to the D5W control group by dividing the “normalized to pre-treatment” ratio for an individual animal by the mean “normalized to pretreatment” ratio of all mice in the D5W control group.

In series [3] the test system is ANGPTL3 gene. The experiment in a line: Example 2: serum HDL in mice. It counts as in vivo. The procedure: as §1, §2, §3
[4] abbreviates: Day 16, single 3.0 mg/kg subcutaneous, cynomolgus monkeys, 3 mg/kg.
Where [5] appears, read: single 3.0 mg/kg subcutaneous, cynomolgus monkeys.
Setting [6] is: day 37, single 3.0 mg/kg subcutaneous, cynomolgus monkeys.
The mark [7] stands for this setting: Day 8, 3.0 mg/kg single subcutaneous dose on day 1, female C57bl/6 mice.
The mark [8] stands for this setting: Day 13, 3.0 mg/kg single subcutaneous dose on day 1, female C57bl/6 mice.
[9] abbreviates: Day 22, 3.0 mg/kg single subcutaneous dose on day 1, female C57bl/6 mice.
The mark [10] stands for this setting: Day 29, 3.0 mg/kg single subcutaneous dose on day 1, female C57bl/6 mice.
The mark [11] stands for this setting: Day 36, 3.0 mg/kg single subcutaneous dose on day 1, female C57bl/6 mice.

The values that follow come from patent US12729377B2, “RNAi agents and compositions for inhibiting expression of angiopoietin-like 3 (ANGPTL3), and methods of use” (Arrowhead Pharmaceuticals, Inc., priority 2017, dated 2026).

“And” between values parts separate entries of the source, which are not always exact repeats. Identical values can stand only once. In the oligonucleotide strings, read from the 5' end, every base follows the letter of its sugar. An asterisk marks phosphorothioate; unmarked linkages are phosphodiester. Other units and linkages are bracketed, terminal groups are in braces. A string of capitals states the bases alone. {NAG37} = tridentate N-acetyl-galactosamine targeting ligand, structure (NAG37)s; [invAb] = inverted abasic unit; m = 2'-O-methyl; f = 2'-fluoro

Take “AD05418: RNAi agent duplex: antisense AM07159-AS, sense AM07158-SS (antisense mU*fU*mU*fGmAfAmUfUmAfAmUfGmUfCmCfAmUfGmGfG*mU; sense {NAG37}*[invAb]*mAmCmCmCmAmUmGmGfAfCfAmUmUmAmAmUmUmCmAmAmA*[invAb])”: the “Avg ANGPTL3 protein normalized to pre-treatment, individual animal” value in series [1] (Day 8, Cyno A) came out at 0.585; in series [1] (Day 8, Cyno B), 0.503; in series [1] (Day 16, Cyno A), 0.358; in series [1] (Day 16, Cyno B), 0.309; in series [1] (Day 23, Cyno A), 0.260; in series [1] (Day 23, Cyno B), 0.340. In addition, the “Avg ANGPTL3 protein normalized to pre-treatment, individual animal” value came out at 0.311 in series [1] (Day 30, Cyno A); 0.467 in series [1] (Day 30, Cyno B); 0.212 in series [1] (Day 37, Cyno A); 0.328 in series [1] (Day 37, Cyno B). The “Avg ANGPTL3 protein normalized to pre-treatment, by group” value is 0.544 in series [1] (Day 8); 0.334 in series [1] (Day 16); 0.300 in series [1] (Day 23); 0.389 in series [1] (Day 30); 0.270 in series [1] (Day 37). For the same substance, the “normalized ANGPTL3 protein level, individual animals” value in series [1] (setting [4]) was 0.358 and 0.309. Besides, in series [1] (setting [4]), the “reduction in ANGPTL3 protein, individual animals” value was “approximately 64% and ~69%”. The “reduction in ANGPTL3 protein compared to pre-treatment” value in series [1] (setting [5]) is “reduction”. In addition, in series [1] (setting [6]), the “average ANGPTL3 protein normalized to pre-treatment” value is given as 0.270. The “average reduction in ANGPTL protein levels” value in series [1] (setting [6]) is “approximately 73%”.

With “AD05308: RNAi agent duplex: antisense AM07003-AS, sense AM07002-SS (chain 1 mU*fG*mU*fUmGfAmAfUmUfAmAfUmGfUmCfCmAfUmGfG*mA; chain 2 {NAG37}*[invAb]*mUmCmCmAmUmGmGmAfCfAfUmUmAmAmUmUmCmAmAmCmA*[invAb])”, the “Avg ANGPTL3 protein normalized to pre-treatment, individual animal” value worked out at 0.545 in series [1] (Day 8, Cyno A); 0.287 in series [1] (Day 8, Cyno B); 0.423 in series [1] (Day 16, Cyno A); 0.471 in series [1] (Day 16, Cyno B); 0.832 in series [1] (Day 23, Cyno A); 0.465 in series [1] (Day 23, Cyno B). Also, the “Avg ANGPTL3 protein normalized to pre-treatment, individual animal” value in series [1] (Day 30, Cyno A) is 0.722; in series [1] (Day 30, Cyno B), 0.572; in series [1] (Day 37, Cyno A), 0.709; in series [1] (Day 37, Cyno B), 0.421. In addition, the “Avg ANGPTL3 protein normalized to pre-treatment, by group” value in series [1] (Day 8) was determined as 0.416; in series [1] (Day 16), 0.447; in series [1] (Day 23), 0.649; in series [1] (Day 30) it was 0.647; in series [1] (Day 37) it was 0.565. Besides, the “reduction in ANGPTL3 protein compared to pre-treatment” value in series [1] (setting [5]) is recorded as “reduction”. In addition, the “Avg TG (Average Triglycerides Normalized to Pre-Treatment and Control)” value in series [2] (setting [7]) is recorded as 0.375; in series [2] (setting [8]) it was 0.554; in series [2] (setting [9]), 0.399; in series [2] (setting [10]) it was 0.473; in series [2] (setting [11]), 0.430. The “Avg HDL (Average HDL Normalized to Pre-Treatment and Control)” value in series [3] (setting [7]) was 0.634; in series [3] (setting [8]), 0.583; in series [3] (setting [9]) it was 0.572; in series [3] (setting [10]), 0.606; in series [3] (setting [11]) it was 0.854.
